Measurements reported in ChEMBL document CHEMBL3045887, “Synthesis and anticonvulsant activity of some N-(benzoyl)glycinanilide derivatives” (Med Chem Res, 2013).
Calls of active or inactive are those of the source.

Tests used:
Mus musculus [1] = experiment: Anticonvulsant activity in Swiss albino Mus musculus (mouse) assessed as protection against maximal electric shock-induced tonic-clonic seizures at 300 mg/kg, ip measured at 0.5 hr; type: functional, organism-based; design: dose 300 mg/kg
Mus musculus [2] = experiment: Anticonvulsant activity in Swiss albino Mus musculus (mouse) assessed as protection against maximal electric shock-induced tonic-clonic seizures at 30 mg/kg, ip measured at 4 hr; type: functional, organism-based; design: dose 30 mg/kg
Mus musculus [3] = experiment: Neurotoxicity against Swiss albino Mus musculus (mouse) at 300 mg/kg, ip measured at 4 hr; type: toxicity, organism-based; design: dose 300 mg/kg, route intraperitoneal; conditions: in vivo
Mus musculus [4] = experiment: Anticonvulsant activity in Swiss albino Mus musculus (mouse) assessed as protection against ScMet-induced myoclonic-clonic seizures at 300 mg/kg, ip measured at 4 hr; type: functional, organism-based; design: dose 300 mg/kg
Mus musculus [5] = experiment: Anticonvulsant activity in Swiss albino Mus musculus (mouse) assessed as protection against maximal electric shock-induced tonic-clonic seizures at 300 mg/kg, ip measured at 4 hr; type: functional, organism-based; design: dose 300 mg/kg
Mus musculus [6] = experiment: Neurotoxicity against Swiss albino Mus musculus (mouse) at 100 mg/kg, ip measured at 0.5 hr; type: toxicity, organism-based; design: dose 100 mg/kg, route intraperitoneal; conditions: in vivo
Mus musculus [7] = experiment: Neurotoxicity against Swiss albino Mus musculus (mouse) at 30 mg/kg, ip measured at 4 hr; type: toxicity, organism-based; design: dose 30 mg/kg, route intraperitoneal; conditions: in vivo
Mus musculus [8] = experiment: Neurotoxicity against Swiss albino Mus musculus (mouse) at 30 mg/kg, ip measured at 0.5 hr; type: toxicity, organism-based; design: dose 30 mg/kg, route intraperitoneal; conditions: in vivo
Mus musculus [9] = experiment: Neurotoxicity against Swiss albino Mus musculus (mouse) at 300 mg/kg, ip measured at 0.5 hr; type: toxicity, organism-based; design: dose 300 mg/kg, route intraperitoneal; conditions: in vivo
Mus musculus [10] = experiment: Anticonvulsant activity in Swiss albino Mus musculus (mouse) assessed as protection against ScMet-induced myoclonic-clonic seizures at 100 mg/kg, ip measured at 0.5 hr; type: functional, organism-based; design: dose 100 mg/kg
Mus musculus [11] = experiment: Anticonvulsant activity in Swiss albino Mus musculus (mouse) assessed as protection against maximal electric shock-induced tonic-clonic seizures at 30 mg/kg, ip measured at 0.5 hr; type: functional, organism-based; design: dose 30 mg/kg
Mus musculus [12] = experiment: Anticonvulsant activity in Swiss albino Mus musculus (mouse) assessed as protection against ScMet-induced myoclonic-clonic seizures at 100 mg/kg, ip measured at 4 hr; type: functional, organism-based; design: dose 100 mg/kg
Mus musculus [13] = experiment: Neurotoxicity against Swiss albino Mus musculus (mouse) at 100 mg/kg, ip measured at 4 hr; type: toxicity, organism-based; design: dose 100 mg/kg, route intraperitoneal; conditions: in vivo
Mus musculus [14] = experiment: Anticonvulsant activity in Swiss albino Mus musculus (mouse) assessed as protection against maximal electric shock-induced tonic-clonic seizures at 100 mg/kg, ip measured at 4 hr; type: functional, organism-based; design: dose 100 mg/kg
Mus musculus [15] = experiment: Anticonvulsant activity in Swiss albino Mus musculus (mouse) assessed as protection against ScMet-induced myoclonic-clonic seizures at 30 mg/kg, ip measured at 4 hr; type: functional, organism-based; design: dose 30 mg/kg
Mus musculus [16] = experiment: Anticonvulsant activity in Swiss albino Mus musculus (mouse) assessed as protection against maximal electric shock-induced tonic-clonic seizures at 100 mg/kg, ip measured at 0.5 hr; type: functional, organism-based; design: dose 100 mg/kg
Mus musculus [17] = experiment: Anticonvulsant activity in Swiss albino Mus musculus (mouse) assessed as protection against ScMet-induced myoclonic-clonic seizures at 30 mg/kg, ip measured at 0.5 hr; type: functional, organism-based; design: dose 30 mg/kg
Mus musculus [18] = experiment: Anticonvulsant activity in Swiss albino Mus musculus (mouse) assessed as protection against ScMet-induced myoclonic-clonic seizures at 300 mg/kg, ip measured at 0.5 hr; type: functional, organism-based; design: dose 300 mg/kg

Measured: Activity

Cc1cccc(C)c1NC(=O)CNC(=O)c1ccccc1
Non-toxic: Mus musculus [3] | Mus musculus [6] | Mus musculus [7] | Mus musculus [8] | Mus musculus [9] | Mus musculus [13]
active: Mus musculus [5] | Mus musculus [14]
inactive: all other assays above

CC(C)c1ccccc1NC(=O)CNC(=O)c1ccccc1
active: Mus musculus [1]
Non-toxic: Mus musculus [3] | Mus musculus [6] | Mus musculus [7] | Mus musculus [8] | Mus musculus [9] | Mus musculus [13]
inactive: all other assays above

O=C(CNC(=O)c1ccc([N+](=O)[O-])cc1)Nc1ccccc1
active: Mus musculus [4] | Mus musculus [18]
Non-toxic: Mus musculus [3] | Mus musculus [6] | Mus musculus [7] | Mus musculus [8] | Mus musculus [9] | Mus musculus [13]
inactive: all other assays above

O=C(CNC(=O)c1ccccc1)Nc1ccccc1
Non-toxic: Mus musculus [3] | Mus musculus [6] | Mus musculus [7] | Mus musculus [8] | Mus musculus [9] | Mus musculus [13]
active: Mus musculus [1]
inactive: all other assays above

COc1ccccc1NC(=O)CNC(=O)c1ccccc1
Non-toxic: Mus musculus [3] | Mus musculus [6] | Mus musculus [7] | Mus musculus [8] | Mus musculus [9] | Mus musculus [13]
inactive: all other assays above

CCc1ccccc1NC(=O)CNC(=O)c1ccccc1
Non-toxic: Mus musculus [3] | Mus musculus [6] | Mus musculus [7] | Mus musculus [8] | Mus musculus [9] | Mus musculus [13]
inactive: all other assays above

O=C(CNC(=O)c1ccccc1)Nc1ccccc1Cl
Non-toxic: Mus musculus [3] | Mus musculus [6] | Mus musculus [7] | Mus musculus [8] | Mus musculus [9] | Mus musculus [13]
inactive: all other assays above

O=C(CNC(=O)c1ccccc1Cl)Nc1ccccc1
active: Mus musculus [5]
Non-toxic: Mus musculus [3] | Mus musculus [6] | Mus musculus [7] | Mus musculus [8] | Mus musculus [9] | Mus musculus [13]
inactive: all other assays above

Cc1ccccc1NC(=O)CNC(=O)c1ccccc1
active: Mus musculus [1]
Non-toxic: Mus musculus [3] | Mus musculus [6] | Mus musculus [7] | Mus musculus [8] | Mus musculus [9] | Mus musculus [13]
inactive: all other assays above

COc1ccc(NC(=O)CNC(=O)c2ccccc2)cc1
Non-toxic: Mus musculus [3] | Mus musculus [6] | Mus musculus [7] | Mus musculus [8] | Mus musculus [9] | Mus musculus [13]
active: Mus musculus [1] | Mus musculus [5] | Mus musculus [16]
inactive: all other assays above

Cc1ccc(C(=O)NCC(=O)Nc2ccccc2)cc1
Non-toxic: Mus musculus [3] | Mus musculus [6] | Mus musculus [7] | Mus musculus [8] | Mus musculus [9] | Mus musculus [13]
active: Mus musculus [18]
inactive: all other assays above
